Laboratory results as given in ChEMBL document CHEMBL1145225, “Antitumor agents. Part 236: Synthesis of water-soluble colchicine derivatives” (Bioorg Med Chem Lett, 2005).
In brackets after ≈: the same amount, converted by molar mass.

Tests used:
[1] = In vitro cytotoxic activity against human lung carcinoma (A549) tumor cell line; assay type: cell-based
[2] = In vitro cytotoxic activity against human ovarian carcinoma (1A9) tumor cell line
[3] = (§1) In vitro cytotoxic activity against human epidermoid carcinoma of the nasopharynx (KB) tumor cell line
[4] = system: KB-V (P-gp-expressing MDR KB subclone); assay: Percentage inhibition of multi drug resistant KB subclone growth expressing P-glycoprotein (KB-V) at 4 ug/mL concentration was determined; settings: for inhibition at 4 µg/mL: Homo sapiens, KB-V
[5] = system: KB; assay: as §1; assay type: functional, cell-based

Row | Structure (SMILES) | IC50 [1] | IC50 [2] | IC50 [3] | Inhibition [4] | IC50 [5] | inhibition at 4 µg/mL [4]
1 | COc1cc2c(c(OC)c1OC(=O)CN(C)C)-c1ccc(SC)c(=O)cc1C(NC(C)=O)CC2.O=C(O)C(O)C(O)C(=O)O (single isomer, unassigned; 5a) | 0.06 µg/mL | 0.01 µg/mL | 0.02 µg/mL | 28% | – | –
2 | COc1cc2c(c(OC)c1OC(=O)CN(C)C)-c1ccc(OC)c(=O)cc1[C@@H](NC(C)=O)CC2.O=C(O)C(O)C(O)C(=O)O | 0.88 µg/mL | 0.11 µg/mL | 0.16 µg/mL | 4% | – | –
3 | COc1cc2c(c(OC)c1OC(=O)CN(C)C)-c1ccc(OC)c(=O)cc1[C@@H](NC(C)=O)CC2 | 0.44 µg/mL (≈ 0.935 µM) | 0.04 µg/mL (≈ 0.085 µM) | – | – | 0.09 µg/mL (≈ 0.191 µM) | 5%
4 | COc1cc2c(c(OC)c1O)-c1ccc(SC)c(=O)cc1[C@@H](NC(C)=O)CC2 | 0.01 µg/mL (≈ 0.0249 µM) | 0.01 µg/mL (≈ 0.0249 µM) | 0.01 µg/mL (≈ 0.0249 µM) | – | – | 56%
5 | COc1cc2c(c(OC)c1O)-c1ccc(OC)c(=O)cc1[C@@H](NC(C)=O)CC2 [2-DESMETHYLCOLCHICIN] | 0.1 µg/mL (≈ 0.259 µM) | 0.1 µg/mL (≈ 0.259 µM) | 0.1 µg/mL (≈ 0.259 µM) | – | – | 24%
6 | COc1cc2c(c(OC)c1OC)-c1ccc(=O)c(O)cc1[C@@H](NC(C)=O)CC2 [COLCHICEINE] | 0.002 µg/mL (≈ 0.00519 µM) | 0.003 µg/mL (≈ 0.00778 µM) | 0.003 µg/mL (≈ 0.00778 µM) | – | – | –
7 | COc1cc2c(c(OC)c1OC(=O)CN(C)C)-c1ccc(SC)c(=O)cc1C(NC(C)=O)CC2 (single isomer, unassigned; 5) | 0.05 µg/mL (≈ 0.103 µM) | 0.05 µg/mL (≈ 0.103 µM) | 0.02 µg/mL (≈ 0.0411 µM) | – | – | 45%
